Measured values: US11759791B2, “Jet milling method” (VECTURA LIMITED, priority 2015, dated 2023)

Assay: Particle size analysis (wet analysis), Malvern Mastersizer 3000 Hydro MV
Format: physicochemical
Conditions: unmicronised / as supplied, wet analysis method
Description: […] The pump speed was set to 3000 rpm. […] The dispersed particles were added to the dispersion unit to reach an obscuration of 5-15%. The optical properties used included a refractive index of 1.52 and an absorption value of 1.0 for the glycopyrrolate, and a refractive index of 1.45 and an absorption value of 1.0 for the magnesium stearate and a refractive index of 1.391 for the iso-octane. Six replicates were performed per measurement.

| Compound | D10 particle size of source powder [μm] | D50 particle size of source powder [μm] | D90 particle size of source powder [μm] |
| --- | --- | --- | --- |
| C[N+]1(C)CCC(OC(=O)C(O)(c2ccccc2)C2CCCC2)C1 (stereo not drawn) [Unmicronised glycopyrrolate, glycopyrrolate] | 20.6 | 148.7 | 409.7 |
| magnesium stearate | 2.8 | 8.8 | 27.4 |
